Where a SMILES comes first, the peptide text is derived from it. [ ]: non-standard residue; d: D form. pT = C[C@@H](OP(=O)(O)O)[C@H](N)C(=O)O
Legend:
C. elegans = assay: Embryonic mitosis and development after nocodazole treatment of worms; type: in vivo; conditions: nocodazole alone, without capg-2 RNAi
Protocol: C. elegans were cultivated on NGM plates at 20° C. as a standard culture method (Brenner, S. Genetics 77, 71-94 (1974)). The capg-2 RNAi clone was obtained from Dr. J. Ahringer's bacteria-feeding RNAi library, which was a kind gift from Dr. J. Lee (Seoul National University). The wild-type N2 strain was used for measuring embryo lethality when capg-2 RNAi was treated with nocodazole. RW10006 (HIS-72::GFP), XA3501 (GFP::HIS-11 and GFP::TBB-2), JG479 (NPP-1::GFP, mCherry::HIS-58 and GFP::TBB-2) and SA17(GFP::PLK-1) were used to determine the effects of capg-2 knockdown on mitosis. JG479 was generated by crossing XA3501 and OCF3 (NPP-1::GFP and mCherry::HIS-58). HIS-72 is histone 3, and TBB-2 is β-tubulin. Both HIS-11 and HIS-58 are histone 2B proteins (www.wormbase.org). Most strains were provided by the CGC, which is funded by the NIH Office of Research Infrastructure Programs (P40 OD010440). For capg-2 RNA interference, L4 worms were transferred to the RNAi plate, and the F1 embryos were observed. The HT115 E. coli strain, which contains the empty RNAi vector (L4440), was used as the control. […] The worms were removed after laying eggs for 12 hours, and the dead embryos were counted the next day. […]

human PLK3-PBD (412-646) = biological target: T1, human PLK3-PBD (412-646) (Homo sapiens, UniProt Q9H4B4); assay: Fluorescence polarization binding assay, PLK3-PBD; conditions: FITC-labelled peptide 10 nM, protein 0 to 4 uM
T1 construct: PLK3-PBD (412-646); GST (N, cleaved yes); made in house; host or cells: E. coli Rosetta2 (DE3) pLysS
T1 sequence (Q9H4B4 412-646): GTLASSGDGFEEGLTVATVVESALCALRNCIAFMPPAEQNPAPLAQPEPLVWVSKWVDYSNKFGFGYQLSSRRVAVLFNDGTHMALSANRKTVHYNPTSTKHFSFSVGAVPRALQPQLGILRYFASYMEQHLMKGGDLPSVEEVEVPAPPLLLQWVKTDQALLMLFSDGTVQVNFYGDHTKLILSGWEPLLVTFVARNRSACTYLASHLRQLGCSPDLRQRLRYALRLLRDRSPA
Protocol: (§1) The human PLK1-PBD (371-594), PLK2-PBD (451-685) and PLK3-PBD (412-646) genes were cloned into pGEX6p-1 vector using EcoRI/XhoI restriction sites. Proteins were over expressed in E. coli strain Rosetta2 (DE3) pLysS. The cells were grown in Terrific Broth medium to an OD600 of 0.6 at 37° C. and recombinant proteins were induced with 0.1 mM isopropyl b-D-thiogalactopyranoside (IPTG) at 25° C. for PLK2 and 20° C. for PLK1 and PLK3, respectively. The cells were further grown at 25° C. (PLK2) or 20° C. (PLK1 and PLK3) for 20 h after IPTG induction. Each cell pellet was lysed with each PLK Binding buffer as described below. […] The purified PLK-PBD proteins were concentrated and used for the fluorescence polarization binding assay.
(§2) For the fluorescence polarization binding assay, each fluorescein isothiocyanate (FITC)-labeled 1010pT (GVLSpTLI), 1010T (GVLSTLI), 1010E (GVLSELI), or 1010D (GVLSDLI) peptide was mixed with purified PLK1, PLK2 or PLK3 and incubated in a buffer containing 10 mM HEPES (pH 7.5), 50 mM NaCl, 1 mM EDTA, 1 mM DTT and 0.0025% (v/v) Tween 20. […] Fluorescence polarization was analyzed 30 min after mixing the peptide and proteins in a 96-well plate using an INFINTE 200 PRO (Tecan). […]

human PLK1-PBD (371-594) = biological target: T2, human PLK1-PBD (371-594) (Homo sapiens, UniProt P53350); assay: Fluorescence polarisation binding assay for the PBD of PLK1; conditions: FITC-labelled peptide 10 nM, protein 0 to 4 μM
T2 construct: The human PLK1-PBD (371-594) was amplified by PCR; GST (N, cleaved yes); made in house; host or cells: E. coli Rosetta2(DE3)pLysS
T2 sequence (P53350 371-594): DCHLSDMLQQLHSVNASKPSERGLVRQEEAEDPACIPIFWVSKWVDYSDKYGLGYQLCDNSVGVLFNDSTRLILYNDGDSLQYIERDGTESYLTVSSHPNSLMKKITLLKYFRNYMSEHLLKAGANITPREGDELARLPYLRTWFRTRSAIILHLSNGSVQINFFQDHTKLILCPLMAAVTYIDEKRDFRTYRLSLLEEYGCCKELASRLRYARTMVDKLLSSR
Protocol: The human PLK1-PBD (371-594) was amplified by PCR and cloned into the pGEX6p-1 vector using the EcoRI and XhoI restriction enzyme sites. The protein was overexpressed in E. coli Rosetta2(DE3)pLysS cells (Novagen). The cells were grown at 37° C. in 3 L of Terrific Broth medium to an OD600 of 0.6, and recombinant protein expression was induced with 0.1 mM isopropyl β-D-thiogalactopyranoside (IPTG) at 20° C. The cells were further grown at 20° C. for 20 hr after IPTG induction. The purification methods were similar to methods that have been previously reported (Cheng, K. Y., et al. The crystal structure of the human polo-like kinase-1 polo box domain and its phospho-peptide complex. EMBO J 22, 5757-68 (2003)). Briefly, the cell pellet was resuspended in ice-cold HBS buffer (10 mM HEPES pH 7.5, 200 mM NaCl, 3.4 mM EDTA, 0.01% (v/v) 1-thioglycerol) and homogenized by sonication. After sonication, the cell debris was centrifuged and supernatant was applied to GST Sepharose resin (GE Healthcare). After extensive washing with HBS buffer, protein was eluted with HBS buffer supplemented with 20 mM reduced glutathione. PreScission protease (GE Healthcare) was added to eluted protein in order to remove the fused GST and the cleavage product was diluted and re-passed through GST Sepharose column. The flow through was collected and applied to Superdex 75 prep grade column (GE Healthcare) equilibrated with HBS buffer. The purified protein was concentrated to 6 mg/ml and used for fluorescence polarization binding assay or crystal screening.
For the fluorescence polarisation binding assay, FITC-labelled 1010pT (GVLSpTLI) or 1010T (GVLSTLI) (SEQ ID NO: 8) peptide was mixed with purified PBD and incubated in a buffer containing 10 mM HEPES (pH7.5), 50 mM NaCl, 1 mM EDTA, 1 mM DTT, and 0.0025% (v/v) Tween 20. The final protein concentrations ranged from 0 to 4 μM, and the final peptide concentration was 10 nM. Fluorescence polarisation was analysed 30 min after mixing the peptide and proteins in a 96-well plate using a VERSAmax microplate reader (Molecular Devices). Binding curves were fitted using GraphPad Prism software (GraphPad Software).
The human PLK1-PBD (371-594), PLK2-PBD (451-685) and PLK3-PBD (412-646) genes were cloned into pGEX6p-1 vector using EcoRI/XhoI restriction sites. […] The purified PLK-PBD proteins were concentrated and used for the fluorescence polarization binding assay.
For the fluorescence polarization binding assay, each fluorescein isothiocyanate (FITC)-labeled 1010pT (GVLSpTLI), 1010T (GVLSTLI), 1010E (GVLSELI), or 1010D (GVLSDLI) peptide was mixed with purified PLK1, PLK2 or PLK3 and incubated in a buffer containing 10 mM HEPES (pH 7.5), 50 mM NaCl, 1 mM EDTA, 1 mM DTT and 0.0025% (v/v) Tween 20. […]

human PLK2-PBD (451-685) = biological target: T3, human PLK2-PBD (451-685) (Homo sapiens, UniProt Q9NYY3); assay: Fluorescence polarization binding assay, PLK2-PBD; conditions: FITC-labelled peptide 10 nM, protein 0 to 4 uM
T3 construct: PLK2-PBD (451-685); GST (N, cleaved yes); made in house; host or cells: E. coli Rosetta2 (DE3) pLysS
T3 sequence (Q9NYY3 451-685): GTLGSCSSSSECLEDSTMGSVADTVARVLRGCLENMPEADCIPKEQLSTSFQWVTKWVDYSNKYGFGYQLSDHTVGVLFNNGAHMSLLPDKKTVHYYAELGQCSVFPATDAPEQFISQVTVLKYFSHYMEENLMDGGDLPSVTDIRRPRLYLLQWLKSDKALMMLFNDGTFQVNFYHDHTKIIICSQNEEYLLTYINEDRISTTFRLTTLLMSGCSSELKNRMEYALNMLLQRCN
Protocol: as §1, §2

binding to PLK3-PBD (in words) (human PLK3-PBD (412-646)) | binding to PLK1-PBD (in words) (human PLK1-PBD (371-594)) | binding to PLK1-PBD (in words) (human PLK1-PBD (371-594); listed as GVLS-pT-LI) | binding to PLK2-PBD (in words) (human PLK2-PBD (451-685)) | Structure (SMILES) | effect on mitosis of embryos (C. elegans)
 |  |  |  | COC(=O)Nc1nc2ccc(C(=O)c3cccs3)cc2[nH]1 [Nocodazole, nocodazole] | did not directly affect mitosis
did not bind | specifically binds | interacts strongly | did not bind | CC[C@H](C)[C@H](NC(=O)[C@H](CC(C)C)NC(=O)[C@@H](NC(=O)[C@H](CO)NC(=O)[C@H](CC(C)C)NC(=O)[C@@H](NC(=O)CN)C(C)C)[C@@H](C)OP(=O)(O)O)C(N)=O [1010pT, GVLSpTLI] (H-GVLS[pT]LI-NH2; N-terminus and C-terminus assumed) | 
